The target of the test is T1, 3 × FLAG-tagged HOIP RBR domain in HEK293T cells (Homo sapiens, UniProt Q96EP0).
T1 construct: expressed in transfected cells; host or cells: HEK293T, transient, modified pcDNA3.1(+)
Description: In-cell labeling, FLAG-IP, tryptic digest and LC-MS/MS. Type of test: cell-based. To be noted: 30 μM, 8 h. As for the experimental part:
Transfection and compound treatment
At approximately 40% confluency, as judged by visual inspection by microscope, cells were transfected by mixing Optimem (Gibco) with the relevant pcDNA3.1 construct (3 µg; 3×FLAG HOIP RBR, 3×FLAG HOIP RBR C885A or mock) and FuGENE transfection reagent (9 µL, vortexed prior to use; Promega) respectively. The solutions were mixed thoroughly and incubated at room temperature for 15 min, then added dropwise and the media was swirled gently to ensure homogenous mixing. The cells were incubated at 37 °C (Binder) for 48 h. Fresh DMEM media supplemented with 1% v/v FBS (Biosera) and 1% v/v L-glutamine/penicillin/streptomycin (Sigma-Aldrich) was aliquoted into 15 mL Falcon tubes (typically 8 mL/tube). […]
The lysates were clarified by centrifugation (Heraeus Fresco 17) at 17 000 × g, 4 °C for 20 min and the pellet discarded. The protein concentration was determined using the BCA assay (see […]
The protein concentrations of the clarified lysates were normalized with reaction buffer (50 mM Tris-HCl, pH 7.5, 1.5 mM MgCl2, 150 mM NaCl, 1 mM Na3VO4, complete protease inhibitor) to 1.0 mg/mL (final volume 400 µL, and <0.1% IGEPAL-CA630). […] One set of beads were denatured in 2× LDS loading buffer and analyzed by SDS PAGE and Western blot (FLAG antibody, Supplementary Figure S12) as described in […]

“Also recorded” adds a separate entry of the source.

T1 sequence (Q96EP0 697-1072): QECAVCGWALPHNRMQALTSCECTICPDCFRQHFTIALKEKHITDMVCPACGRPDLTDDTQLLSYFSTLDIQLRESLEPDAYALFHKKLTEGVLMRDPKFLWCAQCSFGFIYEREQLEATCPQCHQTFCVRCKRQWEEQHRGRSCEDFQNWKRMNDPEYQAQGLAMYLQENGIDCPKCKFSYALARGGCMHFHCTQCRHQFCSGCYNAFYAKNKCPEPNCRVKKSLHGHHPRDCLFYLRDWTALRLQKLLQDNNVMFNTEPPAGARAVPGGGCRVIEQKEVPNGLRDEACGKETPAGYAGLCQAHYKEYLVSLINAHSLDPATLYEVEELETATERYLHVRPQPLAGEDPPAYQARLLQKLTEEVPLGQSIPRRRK

For the molecule `COC(=O)/C=C/CNC(=O)c1cc2c([nH]c1=O)CCCC2` [Compound 11a], the “in-cell labeling of HOIP RBR at C885” value is reported as “significantly labeled; also recorded: significant labeling”.

The values above are taken from publication PMC6383986, “Fragment-Based Covalent Ligand Screening Enables Rapid Discovery of Inhibitors for the RBR E3 Ubiquitin Ligase HOIP” (Journal of the American Chemical Society, 2019).
